{
  "source": "patent US11389544B2",
  "about": "“Formation of functionalized cancer targeting nanoparticles by supramolecular co-assembly” (RAMOT AT TEL-AVIV UNIVERSITY LTD., priority 2016, dated 2022)",
  "tested_on": "human pancreatic cancer cells (Panc-1)",
  "experiment": "Live cell imaging by confocal microscopy, binding/uptake to Panc-1 cells",
  "assay_type": "cell-based",
  "conditions": "Panc-1, 2 h incubation, carboxyfluorescein loaded",
  "method": "Carboxyfluorescein was encapsulated during the preparation of the nanoparticles. Following two hours of incubation with Panc-1 cancer cells, the cells were treated with concanavalin A (Con A) Alexa Fluor 647 conjugate. Live cell imaging analysis was performed by confocal microscopy (FIGS. 8 and 13). […] These findings support the proposed model for the co-assembly of the two peptides. As assumed, the co-assembly with Boc-FF which serves as a spacer, enabled the binding of PTR analog to the somatostatin receptor (FIG. 2b).\nPanc-1 and HEK-293T cells were cultured (100,000 cells) on a cell culture dish with a glass bottom (35 mm, Greiner Bio-one). In the following day cells were incubated for two hours at 37° C. under various conditions: carboxyfluorescein (15 μM), Boc-FF (0.12 mM) and carboxyfluorescein (15 μM), Fmoc-FF-PEG2-PTR (0.3 mM) encapsulated with carboxyfluorescein (15 μM), PTR-3207-86 (0.3 mM), Fmoc-FF-PEG2-PTR (0.3 mM):Boc-FF (1:4) nanospheres encapsulated with carboxyfluorescein (15 μM). After incubation, cells were washed with PBS buffer and were treated with 10 μg/ml Concanavalin A (Con A) Alexa Fluor 647 Conjugate (Invitrogen, Carlsbad, Calif.) for 15 minutes and washed again with PBS. Live cell imaging was conducted using LSM 510 Meta confocal laser scanning microscope (Carl Zeiss, Jena, Germany).",
  "data": [
    {"substance": "carboxyfluorescein", "values": [
      {"measurement": "fluorescence observed in cells (binding/uptake)", "value": "No fluorescence was observed"}
    ]}
  ]
}
